Source: ChEMBL document CHEMBL4257493, “Discovery of 7-hydroxyaporphines as conformationally restricted ligands for beta-1 and beta-2 adrenergic receptors” (Medchemcomm, 2018)

Biological target: Beta-2 adrenergic receptor (Homo sapiens, UniProt P07550)
Assay: Displacement of [3H]-CGP-12177 from human beta2-adrenergic receptor

Chain of Beta-2 adrenergic receptor (P07550 whole entry): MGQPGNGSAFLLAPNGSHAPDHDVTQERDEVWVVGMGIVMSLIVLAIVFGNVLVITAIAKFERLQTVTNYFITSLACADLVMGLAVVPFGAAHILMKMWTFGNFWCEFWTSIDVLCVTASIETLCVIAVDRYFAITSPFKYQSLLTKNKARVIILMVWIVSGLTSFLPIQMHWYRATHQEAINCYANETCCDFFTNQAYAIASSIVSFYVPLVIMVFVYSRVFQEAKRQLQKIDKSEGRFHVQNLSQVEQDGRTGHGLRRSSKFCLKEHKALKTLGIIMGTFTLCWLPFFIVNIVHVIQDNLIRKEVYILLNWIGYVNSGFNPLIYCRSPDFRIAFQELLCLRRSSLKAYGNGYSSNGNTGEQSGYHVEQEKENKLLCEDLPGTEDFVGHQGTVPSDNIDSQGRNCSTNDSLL

## COc1cc2c3c(c1OC)-c1ccccc1[C@@H](O)[C@H]3NCC2
  IC50: 210 nM
